“Also recorded” adds a separate entry of the source. Bridge positions count the residues as written; N and C are the ends. Square brackets hold non-standard residues; d marks the D form. Peptide text beside a SMILES is read from it.
Assays:
[1] = system: Dr-sstr2a; experiment: PRESTO-Tango β-arrestin recruitment assay, Dr-sstr2a; type: cell-based, zebrafish (Danio rerio); conditions: HTLA cells, listed as Consomatin pG1
Excerpt: 3xHA-tagged human SSTR2 construct was obtained from cDNA.org (cDNA resource center, Bloomsburg PA, US). […] Kirill Martemyanov (University of Florida, US). Tango constructs for human SSTR1-5 were kind gifts from Prof. Bryan Roth (University of North Carolina, Chapel Hill, US) (Addgene kit # 1000000068). Tango constructs for fish Dr-sstr2a (sequence accession number: XP_005170178.1) and Dr-sstr2b (sequence accession number: XP_017210358.1) were custom-synthesized by Twist Biosciences using the Tango construct template as described in Kroeze et al., 2015[28]. 3xHA-tagged Dr-sstr2a and 3xHA tagged Dr-sstr2b constructs were inserted into pcDNA3.1 backbone. All DNA constructs were sequenced and confirmed prior to use.
The assay was done as described in ref. [12].

[2] = target: T1, human SSTR2 (Gi3) (Homo sapiens, UniProt P30874); experiment: G protein activation (BRET dissociation) assay, Gi3 at hSSTR2; type: cell-based;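 on Emax: percent of the maximal response to the reference somatostatin agonist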
T1 construct: host or cells: HEK293T cells
Method: (§1) HEK293T cells were seeded onto 6-well plates at a density of 750,000 cells/well. […] 16 to 24 hours post-transfection, HEK293T cells were seeded onto white 96 well plate (PerkinElmer) coated with poly-L-lysine (PLL) at a density of 40,000 cells/well and were allowed to grow overnight. On the day of assay, cells were washed once with phosphate-based saline (PBS) and 80 µL of assay buffer which composed of PBS with 0.5 mM MgCl2 and 0.1% glucose, pH 7.4, were added onto each well. 10 µL of Nluc luciferase substrate furimazine (Promega) were added onto each well and incubated for 3 minutes.
(§2) The net BRET ratio was determined by subtracting the BRET ratio of drugs with the BRET ratio of vehicle control. Net BRET ratio over time was then plotted using GraphPad Prism (v.9.4.1), and the area-under-curve of net BRET ratio over time course for each ligand concentration tested were then determined and plotted against log(concentration) of drugs tested. […] Concentration response curves were fitted with a 4-parameter logistic Eq. (1) using GraphPad Prism (v.9.4.1):1 Y=Emin+(Emax−Emin)/1+10^logEC50−X×Hillslope

[3] = system: perfused rat pancreas; experiment: Rat pancreas perfusion, glucagon output; design: species or system rat (Wistar)
Method: Non-fasted rats were anesthetized by a subcutaneous injection of a balanced mix of hypnorm and midazolam (0.3 mL/100 g body weight). Rats were placed on a heated operating table (37 °C) and the abdomen were opened. Blood vessels were tied off before removing the large and small intestines, the stomach, and the spleen. Then, the kidneys were ligated. […] The perfusion buffer was a modified Krebs-Ringer bicarbonate buffer with 5% (w/v) dextran T-70 (Pharmacosmos, Holbaek, Denmark), 0.1% (w/v) BSA (fraction V), 3.5 mM glucose and 3 mM vamin (Fresenius Kabi, Copenhagen, Denmark), pH adjusted to 7.4. […] Once perfusion of the pancreas was established, a catheter was inserted in the vena portae to collect the venous effluent and the rat was sacrificed by perforation of the diaphragm. After a 30-minute equilibration period, samples were collected every minute for the duration of the protocol. […] 10 mM L-Arginine was used as a positive control. Collected samples were immediately transferred on ice and stored at −20 °C until hormone analysis. Glucagon, insulin, and somatostatin concentrations in venous effluents were quantified by use of validated in-house radioimmunoassays (RIA) as previously described[36] (see below). Statistical analysis were performed where appropriate using one-way analysis of variance (ANOVA) with Dunnett’s post-test. Statistical significance was taken as p < 0.05.
Glucagon concentration in perfusion samples were measured by a validated in-house RIAs using the 4305 antibody, which reacts with the C-terminal epitope of glucagon[36] and no other cleavage products of pro-glucagon. Insulin concentrations were measured with the 2006 antibody, which measures all isoforms of rat insulin. […] Assay sensitivity was <1 pmol/L ( < 5 pmol/L for insulin detection), allowing reliable measurements of increments of at least 25 fmol/min.
Data analysis were performed in GraphPad Prism (v.9.4.1). Statistical analysis were performed using two-way repeated measure analysis of variance (ANOVA) with Šidák test for isolated islets glucagon secretion and one-way repeated measure ANOVA with Dunnett's test for rat pancreas perfusion experiments. Statistical significance was taken as p < 0.05.

[4] = system: human SSTR2 (Gi1-3, GoA, GoB); experiment: G protein activation (BRET dissociation) assay, panel of Gi/o proteins at hSSTR2; type: cell-based; conditions: hSSTR2, HEK293T cells
Method: as §1, §2

[5] = target: human SSTR2 (Homo sapiens, UniProt P30874); experiment: Quantification of ligand bias (operational model), G proteins at hSSTR2; type: cell-based; design: Bryan Roth (Addgene) Addgene kit # 1000000068; host or cells: HTLA cells; conditions: for ∆log(tau/Ka): LogR(ligand) - LogR(SST-14); for LogR ± S.E.M.: log(τ/KA); for RE: relative efficacy; for ∆LogR ± S.E.M.: relative to SS-14; for G protein bias in words: ∆Log(τ/KA), SS-14 as reference
Excerpt: Ligand bias were quantified using the method described in[35]. […] The operational model (2)[35] was used to determine the transduction ratios (τ/KA).2 E=Emin+(Emax−Emin)/1+(1+A/10^logKA)/10^logRA^n where E is the effect of the ligand, [A] is the concentration of test ligands, Emax is the maximal response of the system, Emin is the minimum response of the system, logKA is the logarithm of the equilibrium dissociation constant, n is the slope of the transducer function, log R is the logarithm of the transduction ratio (τ/KA).
Each experiment was analyzed using the operational model which all individual experiments were fitted with a global shared slope. The LogR (equivalent to log [τ] /KA) values were estimated by GraphPad Prism (v.9.4.1) and were used to calculate the relative efficacy (RE) using Eqs.

Sequence of human SSTR2 (P30874 whole entry): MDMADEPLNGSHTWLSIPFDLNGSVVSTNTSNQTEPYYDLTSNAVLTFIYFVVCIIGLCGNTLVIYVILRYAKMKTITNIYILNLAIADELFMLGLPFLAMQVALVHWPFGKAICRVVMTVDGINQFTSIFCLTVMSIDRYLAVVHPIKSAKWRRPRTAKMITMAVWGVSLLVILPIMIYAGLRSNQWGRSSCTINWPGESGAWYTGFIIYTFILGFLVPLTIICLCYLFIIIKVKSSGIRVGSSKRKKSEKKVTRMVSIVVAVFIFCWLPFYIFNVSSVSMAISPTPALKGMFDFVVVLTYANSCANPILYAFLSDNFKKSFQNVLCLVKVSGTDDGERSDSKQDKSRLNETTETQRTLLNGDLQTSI
T1 sequence (P30874 whole entry): as above

CC(C)C[C@H](N)C(=O)N[C@@H](Cc1ccccc1)C(=O)N[C@H]1CSSC[C@@H](C(=O)N[C@@H](Cc2c[nH]c3ccccc23)C(=O)O)NC(=O)[C@H](CO)NC(=O)[C@H](CCCCN)NC(=O)[C@@H](Cc2c[nH]c3ccccc23)NC(=O)[C@H](Cc2ccccc2)NC1=O [pG1] (H-LFCF[dW]KSCW-OH; disulfide 3-8)
activation of Dr-sstr2a in words [1]: very low potency; also recorded: activates the zebrafish Dr-sstr2b (n = 3) but not Dr-sstr2a
Emax [2]: 75.2 ± 7.38%
Hill Slope ([2]; Table S2, Gαi3): 0.70 ± 0.18
Span ± S.E.M. ([2]; Table S2, Gαi3): 75.57 ± 8.97
suppression of glucagon secretion ([3]; 0.1 nM, within 5 minute of application, […] glucose, n = 10 rats): 24%
further suppression of glucagon secretion ([3]; 1 nM, subsequent application, […] glucose, n = 10 rats): 45%
glucagon level in words ([3]; 10 nM, […] glucose): drastically reduced the glucagon level close to null
recovery of glucagon level after washout ([3]; after 0.1 nM, 15-minute washout, baseline 754.9 fmol/min): failed to return to the average baseline level
Gi/o protein dissociation in words [4]: weaker potencies at dissociating all Gi/o proteins compared to SS-14
Gi/o protein dissociation in words ([4]; listed as Consomatin pG1): weaker potencies in dissociating different Gαi/o protein compared to SS-14 and octreotide
∆log(tau/Ka) ([5]; Gi1 (Gαi1)): -1.977
LogR, Mean ([5]; Gi1, N: SS-14 4, Octreotide 2, pG1 4): 7.421
LogR ([5]; Gi1, replicate 1 (row r6)): 7.197
LogR ([5]; Gi1, replicate 2 (row r7)): 7.651
LogR ([5]; Gi1, replicate 3 (row r8)): 7.8528
LogR ([5]; Gi1, replicate 4 (row r9)): 6.983
∆log(tau/Ka) ([5]; Gi2 (Gαi2)): -1.482
LogR, Mean ([5]; Gi2, N: SS-14 5, Octreotide 3, pG1 5): 7.871
LogR ([5]; Gi2, replicate 1 (row r6)): 7.692
LogR ([5]; Gi2, replicate 2 (row r7)): 7.679
LogR ([5]; Gi2, replicate 3 (row r8)): 7.686
LogR ([5]; Gi2, replicate 4 (row r9)): 8.256
LogR ([5]; Gi2, replicate 5 (row r10)): 8.0434
∆log(tau/Ka) ([5]; Gi3 (Gαi3)): -1.406
LogR, Mean ([5]; Gi3, N: SS-14 3, Octreotide 2, pG1 3): 8.305
LogR ([5]; Gi3, replicate 1 (row r6)): 7.832
LogR ([5]; Gi3, replicate 2 (row r7)): 8.615
LogR ([5]; Gi3, replicate 3 (row r8)): 8.468
∆log(tau/Ka) ([5]; GoA (GαoA)): -1.083
LogR, Mean ([5]; GoA, N: SS-14 4, Octreotide 2, pG1 2): 8.753
LogR ([5]; GoA, replicate 1 (row r6)): 8.653
LogR ([5]; GoA, replicate 4 (row r9)): 8.853
∆log(tau/Ka) ([5]; GoB (GαoB)): -1.118
LogR, Mean ([5]; GoB, N: SS-14 2, Octreotide 2, pG1 3): 8.505
LogR ([5]; GoB, replicate 1 (row r6)): 8.36
LogR ([5]; GoB, replicate 2 (row r7)): 8.764
LogR ([5]; GoB, replicate 3 (row r8)): 8.39
LogR ± S.E.M. ([5]; Gαi1): 7.42 ± 0.20
RE ([5]; Gαi1, 10^∆log(τ/KA)): 0.01
∆LogR ± S.E.M. ([5]; Gαi1): -1.98 ± 0.27
LogR ± S.E.M. ([5]; Gαi2): 7.87 ± 0.12
RE ([5]; Gαi2): 0.033
∆LogR ± S.E.M. ([5]; Gαi2): -1.48 ± 0.31
LogR ± S.E.M. ([5]; Gαi3): 8.30 ± 0.24
RE ([5]; Gαi3): 0.039
∆LogR ± S.E.M. ([5]; Gαi3): -1.41 ± 0.26
LogR ± S.E.M. ([5]; GαoA): 8.75 ± 0.10
RE ([5]; GαoA): 0.082
∆LogR ± S.E.M. ([5]; GαoA): -1.08 ± 0.13
LogR ± S.E.M. ([5]; GαoB): 8.50 ± 0.13
RE ([5]; GαoB): 0.076
∆LogR ± S.E.M. ([5]; GαoB): -1.12 ± 0.14
G protein bias in words [5]: does not bias towards Gi1 protein but preferentially couples to GoA and GoB protein
G protein bias in words ([5]; listed as Consomatin pG1): displays G protein bias towards Go subunits
